Experimental data published in paper PMC9906756 (2023).

Assays:
Test in all cases: luminescence titration
[1] = tested on: K-ras (DNA, G4) AGGGCGGTGTGGGATAGGGAA; details: 100 mM KCl, 10 mM potassium phosphate; pH 7; 10 μM Ru-PDC3; per G4 strand; site size 0.5
[2] = tested on: INTER (DNA, G4) TAGGGTTA; details: 100 mM KCl, 10 mM potassium phosphate; pH 7; 10 μM Ru-PDC3; concentration as G4 strand equivalent; site size 0.5
[3] = tested on: ds17 (DNA, duplex) CCAGTTCGTAGTAACCC/GGGTTACTACGAACTGG; details: 100 mM KCl, 10 mM potassium phosphate, pH 7, 10 μM Ru-PDC3, per base pair, site size 1
[4] = tested on: TBA (DNA, G4) GGTTGGTGTGGTTGG; details: 100 mM KCl, 10 mM potassium phosphate; pH 7; 10 μM Ru-PDC3; per G4 strand; site size 0.5
[5] = tested on: T13 (DNA, single strand) TTTTTTTTTTTTT; details: 100 mM KCl, 10 mM potassium phosphate, pH 7, 10 μM Ru-PDC3, per base, site size 1, Table S2 prints error 0.6
[6] = tested on: ss17 (DNA, single strand) CCAGTTCGTAGTAACCC; details: 100 mM KCl, 10 mM potassium phosphate, pH 7, 10 μM Ru-PDC3, per base, site size 1
[7] = tested on: 22AG (DNA, G4) AGGGTTAGGGTTAGGGTTAGGG; details: 100 mM KCl, 10 mM potassium phosphate; pH 7; 10 μM Ru-PDC3; per G4 strand; site size 0.5
[8] = tested on: A13 (DNA, single strand) AAAAAAAAAAAAA; details: 100 mM KCl, 10 mM potassium phosphate, pH 7, 10 μM Ru-PDC3, per base, site size 0.5, Table S2 prints 2.3±1.2 × 10^6
[9] = tested on: Pu24T (DNA, G4) TGAGGGTGGTGAGGGTGGGGAAGG; details: 100 mM KCl, 10 mM potassium phosphate; pH 7; 10 μM Ru-PDC3; per G4 strand; site size 0.5

C[n+]1cc(NC(=O)c2ccc3c(n2)c2nc(C(=O)Nc4cc5ccccc5[n+](C)c4)ccc2c2nc4c5cccnc5c5ncccc5c4nc32)cc2ccccc21.[Ru+2].c1cnc2c(c1)ccc1cccnc12.c1cnc2c(c1)ccc1cccnc12
Kb [1]: 1.4 ± 0.1 × 10^7 M^-1
Kb [2]: 1.4 ± 0.2 × 10^7 M^-1
Kb [3]: 1.9 ± 0.3 × 10^6 M^-1
Kb [4]: 5.6 ± 1.7 × 10^6 M^-1
Kb [5]: 1.4 ± 0.5 × 10^6 M^-1
Kb [6]: 1.3 ± 0.4 × 10^6 M^-1
Kb [7]: 2.2 ± 0.7 × 10^7 M^-1
Kb [8]: 2.2 ± 1.3 × 10^6 M^-1
Kb [9]: 2.6 ± 0.1 × 10^6 M^-1
